From article PMC10671715, “Self-Entrapment of Antimicrobial Peptides in Silica Particles for Stable and Effective Antimicrobial Peptide Delivery System” (International Journal of Molecular Sciences, 2023)
Read-outs that look alike come from different tables or passages of the source. Marks after values point to notes of the source that are not given here.

Experiments:
E. coli = format: cell-based, Escherichia coli (wild type W2110); settings: 18 h
Description: (§1) Two Gram-negative bacterial strains, namely Escherichia coli (wild type W2110) and Pseudomonas aeruginosa (wild type PK01) and Gram-positive strain, […] (ATCC 29213) were obtained from the Department of Biotechnology and Bioinformatics at Korea University.
(§2) The broth microdilution assay was used to test the antimicrobial activity of AMPs, as previously reported. Briefly, bacteria were grown to mid-logarithmic growth phase in Mueller Hinton Broth (MHB) media at 37 °C. Then, in 96-well plates, 50 µL of peptide solution (0–320 µM) diluted using a 2-fold serial dilution method was mixed with an equal volume of bacterial solution (3 × 10^6 CFU/mL) and incubated for 18 h at 37 °C with shaking at 200 rpm. The negative control was the culture medium itself. […] The assay was performed in triplicate.

P. aeruginosa = format: cell-based, Pseudomonas aeruginosa (wild type PK01); settings: 18 h
Description: as §1, §2

S. aureus [1] = format: cell-based, Staphylococcus aureus (ATCC 29213); settings: 18 h
Description: as §1, §2

[2] = tested on: sheep red blood cells (RBCs); experiment: Hemolytic activity assay; format: cell-based; settings: at 77.5 μM (free peptides: up to 77.5 μM); 37 °C, 1 h, A570, 100% = 1% Triton X-100; N = 3
Description: Free peptides and silica particles loaded with them (AMP@Si) were compared for their cytotoxicity against mouse macrophages (Raw264.7 cells) and their hemolytic activity against RBCs. Free AMP or AMP@Si was added to each well of a 96-well plate in 2-fold serial dilutions to 50 μL with DMEM medium containing 10% FBS and 1% antibiotics. Raw264.7 macrophages at a concentration of 4 × 10^4 cells per 50 μL were added to the wells containing the peptide to give a final volume of 100 μL. Cell proliferation was confirmed by MTS assay (Promega, Madison, WI, USA) after 24 h or 5 days of incubation. The MTS tetrazolium compound was reduced by viable cells to generate a colored formazan product. […] To calculate cell viability, the absorbance of cells treated with the peptide was divided by the absorbance of cells that were not treated with the peptide. The resulting quotient was then expressed as a percentage. […] The supernatant (100 μL) was collected after centrifugation at 1000× g for 5 min, and the absorbance (A) was measured at 570 nm. The value of “zero hemolysis” was determined by the absorbance of PBS alone, and 100% hemolysis was determined by the absorbance of the supernatant obtained from 1% (v/v) Triton X-100-treated RBCs. The percentage of hemolysis was calculated as hemolysis (%) = (AAMP − APBS)/(ATriton − APBS) × 100. […]

S. aureus [3] = tested on: S. aureus; set-up: method as in PMID 33236626; settings: cited from earlier work
[4] = tested on: E. coli (after trypsin treatment of AMP); experiment: Residual antibacterial activity after trypsin treatment; settings: 300 μM in 1× PBS, 0.025% trypsin, 37 °C, 3 min, stopped with FBS; overnight culture, OD600; N = 3
Description: (§3) The absorbance value of the bacteria in the absence of AMP was used as the negative control. The absorbance value of the bacteria grown in the presence of trypsinized AMP was subtracted from that of the negative control, and the resulting difference was expressed as a percentage fraction of the negative control, yielding the residual antibacterial activity of AMP after trypsin treatment (Figure 6a).
(§4) Free AMP or AMP@Si was dissolved in 1 × PBS at a concentration of 300 μM and left at 37 °C for 3 min in the presence of 0.025% trypsin, followed by the addition of fetal bovine serum (FBS) to stop the activity of trypsin. Bacteria were incubated overnight with each trypsinized peptide formula, and broth absorbance was measured at 600 nm. As a negative control, the absorbance of the strain grown in the absence of the peptide was set. To determine the remaining antimicrobial activity of AMP after treatment of trypsin, the absorbance of the sample treated with AMP was subtracted from the absorbance of the negative control. The resulting difference was then expressed as a percentage of the absorbance of the negative control.
(§5) (a) The residual antibacterial activity was calculated by taking the difference in optical density at 600 nm between the negative control and the sample containing the trypsinized AMP. It was then divided by the optical density of the negative control and multiplied by 100. Each bacterial solution grown in a medium without AMP is used as a corresponding negative control. […] The image is a 10,000× magnification, the inside image is a 20,000× magnification, and the scale bar represents 1 µm.

[5] = tested on: P. aeruginosa (after trypsin treatment of AMP); experiment: as above; settings: 300 μM in 1× PBS, 0.025% trypsin, 37 °C, 3 min, stopped with FBS; overnight culture, OD600; N = 3
Description: as §3, §4, §5

[6] = tested on: S. aureus (after trypsin treatment of AMP); experiment: as above; settings: 300 μM in 1× PBS, 0.025% trypsin, 37 °C, 3 min, stopped with FBS; overnight culture, OD600; N = 3
Description: as §3, §4, §5

Raw264.7 cells = experiment: Cytotoxicity, MTS assay; format: cell-based, mouse; settings: for Cell viability: 24 h, MTS, N = 3
Description: Free peptides and silica particles loaded with them (AMP@Si) were compared for their cytotoxicity against mouse macrophages (Raw264.7 cells) and their hemolytic activity against RBCs. Free AMP or AMP@Si was added to each well of a 96-well plate in 2-fold serial dilutions to 50 μL with DMEM medium containing 10% FBS and 1% antibiotics. Raw264.7 macrophages at a concentration of 4 × 10^4 cells per 50 μL were added to the wells containing the peptide to give a final volume of 100 μL. Cell proliferation was confirmed by MTS assay (Promega, Madison, WI, USA) after 24 h or 5 days of incubation. The MTS tetrazolium compound was reduced by viable cells to generate a colored formazan product. The intensity of the color at 490 nm is proportional to the number of viable cells in the sample. To calculate cell viability, the absorbance of cells treated with the peptide was divided by the absorbance of cells that were not treated with the peptide. The resulting quotient was then expressed as a percentage. […] The supernatant (100 μL) was collected after centrifugation at 1000× g for 5 min, and the absorbance (A) was measured at 570 nm. The value of “zero hemolysis” was determined by the absorbance of PBS alone, and 100% hemolysis was determined by the absorbance of the supernatant obtained from 1% (v/v) Triton X-100-treated RBCs. The percentage of hemolysis was calculated as hemolysis (%) = (AAMP − APBS)/(ATriton − APBS) × 100.
Figure 7 The hemolytic activity and cytotoxicity of AMPs. […] (b) The cytotoxicity of AMP was measured 24 h after the addition of each indicated concentration of AMP to Raw264.7 cells grown overnight. Cell survival is expressed as a percentage of the negative control grown without AMP.
Figure S4. […] The cytotoxicity of AMP was measured 5 days after incubation of Raw 264.7 cells (4 x 10^5 cells/ mL) in the presence of each indicated concentration of AMP Cell survival was expressed as a percentage of the negative control grown without AMP. […]

[7] = free peptide, MHB, 2-fold dilution 0–320 µM, 37 °C, OD600, mean ± standard error of three replicate experiments

Ac-KRIVQRIKDFLR-NH2 [KR12, reference compound]
Minimum inhibitory concentration (MIC) (E. coli): 103.36 ± 25.82 µM
Minimum inhibitory concentration (MIC) (P. aeruginosa): 181.98 ± 68.20 µM
Minimum inhibitory concentration (MIC) (S. aureus [1]): >320 ^a µM
Hemolysis [2]: less than 1%

YGRKKRRQRRKRIVQRIKDFLR [TAT-KR-12, literature peptide developed for treatment of intracellular S. aureus infection]
Antibacterial activity against S. aureus (S. aureus [3]): enhanced antibacterial activity

CC(=O)N[C@@H](CCCNC(=N)N)C(=O)N[C@@H](CCCCN)C(=O)N[C@@H](CCCCN)C(=O)N[C@@H](CCCNC(=N)N)C(=O)N[C@@H](CCCNC(=N)N)C(=O)N[C@@H](CCC(N)=O)C(=O)N[C@@H](CCCNC(=N)N)C(=O)N[C@@H](CCCNC(=N)N)C(=O)N[C@@H](CCCNC(=N)N)C(N)=O
entrapment efficiency (EE): 95%

Ac-RKKRRQRRRGSSKRIVQRIKDFLR-NH2 [CPP-KR12]
Minimum inhibitory concentration (MIC) (E. coli; [7]): 12.09 ± 4.97 µM
Minimum inhibitory concentration (MIC) (P. aeruginosa; [7]): 6.12 ± 3.72 µM
Minimum inhibitory concentration (MIC) (S. aureus [1]; [7]): 22.80 ± 8.48 µM
Residual antibacterial activity after trypsin treatment [4]: approximately 10%
Residual antibacterial activity after trypsin treatment [5]: approximately 15%
Residual antibacterial activity after trypsin treatment [6]: approximately 15%
Hemolysis [2]: less than 1%
Cytotoxicity (Raw264.7 cells; 6 µM): not cytotoxic
Cell viability (Raw264.7 cells; 19.38 μM): 80%
Cell viability (Raw264.7 cells; 77.5 μM): 10%
entrapment efficiency (EE): 95%
